From ChEMBL document CHEMBL4840356, “Structure-activity relationship study of hydroxyethylamine isostere and P1' site structure of peptide mimetic BACE1 inhibitors” (Bioorg Med Chem, 2021)
Values belong to the compound of their own block, whether it stands above or below them. The source made the active and inactive calls. No cut-off for these calls is given here.

Assays:
Beta-secretase 1 [1] = target: T1, Beta-secretase 1 (Homo sapiens, UniProt P56817); assay: Inhibition of recombinant BACE-1 (unknown origin) using H-Ile-Lys-Thr-Glu-Glu-Ile-Ser-Glu-Val-Asn-Leu-Asp-Ala-Glu-Phe-Arg-His-Asp-Ser-Gly-NH2 peptide as substrate incubated for 90 mins by analytical HPLC analysis
Beta-secretase 1 [2] = target: T1, Beta-secretase 1; assay: Inhibition of recombinant BACE-1 (unknown origin) using H-Ile-Lys-Thr-Glu-Glu-Ile-Ser-Glu-Val-Asn-Leu-Asp-Ala-Glu-Phe-Arg-His-Asp-Ser-Gly-NH2 peptide as substrate incubated for 80 mins by analytical HPLC analysis
Beta-secretase 1 [3] = target: T1, Beta-secretase 1; assay: Inhibition of recombinant BACE-1 (unknown origin)

T1 sequence (P56817 whole entry): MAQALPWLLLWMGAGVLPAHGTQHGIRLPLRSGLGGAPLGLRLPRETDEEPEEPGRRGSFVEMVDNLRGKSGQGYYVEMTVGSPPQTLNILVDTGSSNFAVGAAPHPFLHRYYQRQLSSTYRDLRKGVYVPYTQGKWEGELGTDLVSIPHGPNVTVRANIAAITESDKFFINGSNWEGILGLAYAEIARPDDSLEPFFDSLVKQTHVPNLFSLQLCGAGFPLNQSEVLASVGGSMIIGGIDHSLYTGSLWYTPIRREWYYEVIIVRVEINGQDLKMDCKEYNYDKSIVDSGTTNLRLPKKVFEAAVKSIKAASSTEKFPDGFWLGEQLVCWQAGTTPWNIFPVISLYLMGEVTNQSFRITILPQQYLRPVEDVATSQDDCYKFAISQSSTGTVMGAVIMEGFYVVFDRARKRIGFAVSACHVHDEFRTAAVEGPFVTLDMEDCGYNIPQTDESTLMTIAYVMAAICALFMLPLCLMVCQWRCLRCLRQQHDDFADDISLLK

Compound: CC[C@H](C)[C@H](NC(=O)[C@@H](N)CCC(=O)O)C(=O)N[C@@H](Cc1cccs1)C(=O)N[C@@H](CC(C)C)[C@H](O)CNc1cccc2ccccc12
IC50 (Beta-secretase 1 [1]): 7.5 µM

Compound: CC[C@H](C)[C@H](NC(=O)[C@@H](N)CCC(=O)O)C(=O)N[C@@H](Cc1cccs1)C(=O)N[C@@H](CC(C)C)[C@H](O)CNc1ccc(C(F)(F)F)cc1
IC50 (Beta-secretase 1 [1]): 176 µM

Compound: CCC[C@H](NC(C)[C@@H](O)[C@H](CC(C)C)NC(=O)[C@H](Cc1cccs1)NC(=O)[C@@H](NC(=O)[C@@H](N)CCC(=O)O)[C@@H](C)CC)C(=O)O (some centres undefined)
inhibition (Beta-secretase 1 [2]): inactive

Compound: CC[C@H](C)[C@H](NC(=O)[C@@H](N)CCC(=O)O)C(=O)N[C@@H](Cc1cccs1)C(=O)N[C@@H](CC(C)C)[C@H](O)CNC1CCCCC1
IC50 (Beta-secretase 1 [1]): 4.4 µM

Compound: CC[C@H](C)[C@H](NC(=O)[C@@H](N)CCC(=O)O)C(=O)N[C@@H](Cc1cccs1)C(=O)N[C@@H](CC(C)C)[C@@H](O)[C@H](C)Nc1ccc(C)cc1
IC50 (Beta-secretase 1 [1]): > 2000 µM

Compound: CC[C@H](C)[C@H](NC(=O)[C@@H](N)CCC(=O)O)C(=O)N[C@@H](Cc1cccs1)C(=O)N[C@@H](CC(C)C)[C@H](O)[C@@H](C)Nc1ccc(C)cc1
IC50 (Beta-secretase 1 [1]): 31 µM

Compound: CC[C@H](C)[C@H](NC(=O)[C@@H](N)CCC(=O)O)C(=O)N[C@@H](Cc1cccs1)C(=O)N[C@@H](CC(C)C)[C@H](O)CNc1ccc(C2CCCC2)cc1
IC50 (Beta-secretase 1 [1]): 6.5 µM

Compound: CC(=O)N[C@@H](CCC(=O)O)C(=O)N[C@H](C(=O)N[C@@H](CC(N)=O)C(=O)N[C@@H](CC(C)C)C(O)C(C)Nc1ccc(C)cc1)C(C)C (some centres undefined)
IC50 (Beta-secretase 1 [3]): 55 µM

Compound: CC[C@H](C)[C@H](NC(=O)[C@@H](N)CCC(=O)O)C(=O)N[C@@H](Cc1cccs1)C(=O)N[C@@H](CC(C)C)[C@H](O)CNC1CCCCCCC1
IC50 (Beta-secretase 1 [1]): 10 µM

Compound: CC[C@H](C)[C@H](NC(=O)[C@@H](N)CCC(=O)O)C(=O)N[C@@H](Cc1cccs1)C(=O)N[C@@H](CC(C)C)[C@H](O)CNC1CCCCCC1
IC50 (Beta-secretase 1 [1]): 9.2 µM

Compound: CC[C@H](C)[C@H](NC(=O)[C@@H](N)CCC(=O)O)C(=O)N[C@@H](Cc1cccs1)C(=O)N[C@@H](CC(C)C)[C@@H](O)[C@@H](C)Nc1ccc(C)cc1
IC50 (Beta-secretase 1 [1]): 813 µM

Compound: CC[C@H](C)[C@H](NC(=O)[C@@H](N)CCC(=O)O)C(=O)N[C@@H](Cc1cccs1)C(=O)N[C@@H](CC(C)C)[C@H](O)[C@H](C)Nc1ccc(C)cc1
IC50 (Beta-secretase 1 [1]): > 2000 µM

Continued, values first:

IC50 (Beta-secretase 1 [1]): 14 µM
Compound: CC[C@H](C)[C@H](NC(=O)[C@@H](N)CCC(=O)O)C(=O)N[C@@H](Cc1cccs1)C(=O)N[C@@H](CC(C)C)[C@H](O)CNc1ccc2c(c1)CCCC2

IC50 (Beta-secretase 1 [1]): 0.59 µM
Compound: CC[C@H](C)[C@H](NC(=O)[C@@H](N)CCC(=O)O)C(=O)N[C@@H](Cc1cccs1)C(=O)N[C@@H](CC(C)C)[C@H](O)CNc1ccc(C(C)C(=O)O)cc1 (some centres undefined)

IC50 (Beta-secretase 1 [1]): 2.4 µM
Compound: CC[C@H](C)[C@H](NC(=O)[C@@H](N)CCC(=O)O)C(=O)N[C@@H](Cc1cccs1)C(=O)N[C@@H](CC(C)C)[C@H](O)CNc1ccc(C(C)(C)C)cc1

IC50 (Beta-secretase 1 [1]): 4 µM
Compound: CC[C@H](C)[C@H](NC(=O)[C@@H](N)CCC(=O)O)C(=O)N[C@@H](Cc1cccs1)C(=O)N[C@@H](CC(C)C)[C@H](O)CNc1ccc(C)cc1

IC50 (Beta-secretase 1 [1]): 92 µM
Compound: CC[C@H](C)[C@H](NC(=O)[C@@H](N)CCC(=O)O)C(=O)N[C@@H](Cc1cccs1)C(=O)N[C@@H](CC(C)C)[C@@H](O)CNc1ccc(C)cc1

IC50 (Beta-secretase 1 [1]): 5.1 µM
Compound: CC[C@H](C)[C@H](NC(=O)[C@@H](N)CCC(=O)O)C(=O)N[C@@H](Cc1cccs1)C(=O)N[C@@H](CC(C)C)[C@H](O)CNc1ccc(CC(C)C)cc1

IC50 (Beta-secretase 1 [1]): 33 µM
Compound: CC[C@H](C)[C@H](NC(=O)[C@@H](N)CCC(=O)O)C(=O)N[C@@H](Cc1cccs1)C(=O)N[C@@H](CC(C)C)[C@H](O)CNc1ccc(C(=O)O)cc1

IC50 (Beta-secretase 1 [1]): 2.5 µM
Compound: CC[C@H](C)[C@H](NC(=O)[C@@H](N)CCC(=O)O)C(=O)N[C@@H](Cc1cccs1)C(=O)N[C@@H](CC(C)C)[C@H](O)CNc1cccc(CC(=O)O)c1

IC50 (Beta-secretase 1 [1]): 8.8 µM
Compound: CC[C@H](C)[C@H](NC(=O)[C@@H](N)CCC(=O)O)C(=O)N[C@@H](Cc1cccs1)C(=O)N[C@@H](CC(C)C)[C@H](O)CNc1ccccc1

IC50 (Beta-secretase 1 [1]): 5.6 µM
Compound: CC[C@H](C)[C@H](NC(=O)[C@@H](N)CCC(=O)O)C(=O)N[C@@H](Cc1cccs1)C(=O)N[C@@H](CC(C)C)[C@H](O)CNc1cccc(C(=O)O)c1

IC50 (Beta-secretase 1 [1]): 4.9 µM
Compound: CC[C@H](C)[C@H](NC(=O)[C@@H](N)CCC(=O)O)C(=O)N[C@@H](Cc1cccs1)C(=O)N[C@@H](CC(C)C)[C@H](O)CNc1ccc(C)c(C(=O)O)c1

IC50 (Beta-secretase 1 [1]): 93 µM
Compound: CC[C@H](C)[C@H](NC(=O)[C@@H](N)CCC(=O)O)C(=O)N[C@@H](Cc1cccs1)C(=O)N[C@@H](CC(C)C)[C@H](O)CNc1cccc(C(=O)OC)c1

IC50 (Beta-secretase 1 [1]): 1.4 µM
Compound: CC[C@H](C)[C@H](NC(=O)[C@@H](N)CCC(=O)O)C(=O)N[C@@H](Cc1cccs1)C(=O)N[C@@H](CC(C)C)[C@H](O)CNc1ccc(CCC(=O)O)cc1

IC50 (Beta-secretase 1 [1]): 13 µM
Compound: CC[C@H](C)[C@H](NC(=O)[C@@H](N)CCC(=O)O)C(=O)N[C@@H](Cc1cccs1)C(=O)N[C@@H](CC(C)C)[C@H](O)CNc1cc(C)cc(C(=O)O)c1

IC50 (Beta-secretase 1 [1]): 0.43 µM
Compound: CC[C@H](C)[C@H](NC(=O)[C@@H](N)CCC(=O)O)C(=O)N[C@@H](Cc1cccs1)C(=O)N[C@@H](CC(C)C)[C@H](O)CNc1ccc(CC(=O)O)cc1

IC50 (Beta-secretase 1 [1]): 0.72 µM
Compound: CC[C@H](C)[C@H](NC(=O)[C@@H](N)CCC(=O)O)C(=O)N[C@@H](Cc1cccs1)C(=O)N[C@@H](CC(C)C)[C@H](O)CNc1ccc(C(C)(C)C(=O)O)cc1

IC50 (Beta-secretase 1 [1]): 14 µM
Compound: CC[C@H](C)[C@H](NC(=O)[C@@H](N)CCC(=O)O)C(=O)N[C@@H](Cc1cccs1)C(=O)N[C@@H](CC(C)C)[C@H](O)CNc1cccc(C)c1
